According to article PMC4055595, “Pharmacokinetic Compatibility of Ginsenosides and Schisandra Lignans in Shengmai-san: From the Perspective of P-Glycoprotein” (PLoS ONE, 2014):

How the values were obtained:
[1] = system: LLC-PK1 cells (lacking P-gp); assay: Transport of digoxin and ginsenosides across LLC-PK1 cell monolayers; type: in vitro ADME; conditions: for Effect of SLE on transport (AP→BL, BL→AP): SLE 2.0 and 10.0 µg/mL; for Effect of verapamil on transport (efflux ratio): 10 µM verapamil
Protocol: LLC-PK1 cells, a cell line lacking P-gp, and the derived cell line L-MDR1, which over-express human MDR1-encoded P-gp, were grown in minimum essential medium with supplements at 37°C, 5% CO2, and 95% humidity. LLC-PK1 and L-MDR1 cells were seeded at a density of 12×10^6 cells per 150-cm^2 flask and grown for 7 days in medium 199 supplemented with 2 mM glutamine, 10% fetal bovine serum, 10 mg/500 mL of streptomycin, and 10,000 IU/500 mL of penicillin. To ensure a constant expression level of transport protein, L-MDR1 cells were grown in the presence of 640 nM vincristine. Cells were grown as monolayer on polycarbonate membrane filters (Transwell; Costar Corporation, Cambridge, MA) as outlined previously. Transepithelial resistance was measured in each well using a Millicell ERS ohmmeter (Millipore, Bedford, MA); wells registering a resistance of 200 ohms or greater, after correcting for the resistance obtained in control blank wells, were used in the transport experiments.
The LLC-PK1 and L-MDR1 cells were washed with warm Hank's balanced salt solution HBSS (pH 7.4) twice before transport experiment. HBSS containing verapamil (10 µM), SLE (2.0 and 10.0 µg/mL) or blank HBSS (control) was then loaded into both apical and basolateral chambers. After incubation at 37°C for 1.5 h, GE (100 µg/mL) was added to either the apical or basolateral side to evaluate the transport in absorptive and secretive directions, respectively. The cell monolayer was then incubated for another 2 h. Finally, the concentrations of ginsenosides were determined by LC/MS. All experiments were conducted in triplicate.
For the transport assay, the apparent permeability (P app, cm/s) in each direction (A→B and B→A) was calculated as follows, where A is the surface area of the membrane inserts (0.0804 cm^2), C 0 is the initial concentration of the compound applied in the donor compartment (2 µM), and △Q is the amount (micromoles) of compound transported over time △t (5 h = 18,000 s): [drawing 1]
The efflux ratio (ER) was a dimensionless number calculated as the ratio of the apparent permeability in the B→A direction divided by the apparent permeability in the A→B direction. [drawing 2]

[2] = system: P-gp; set-up: method as in PMID 16557452; conditions: Caco-2 cell monolayer; cited from earlier work
[3] = system: Caco-2 cell monolayer; assay: Transport of digoxin and ginsenosides across Caco-2 cell monolayer (efflux ratio); type: in vitro ADME, human; conditions: for Effect of verapamil on efflux ratio: Caco-2 cells, 10 µM verapamil; for Effect of SLE on BL-AP transport / efflux ratio: Caco-2 monolayer, SLE 2.0 and 10.0 µg/mL
Procedure, shortened: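 Caco-2 monolayers (18-21 days, TEER >600 Ω·cm²) preincubated 1.5 h at 37 °C in HBSS pH 7.4 with SLE (2.0 or 10.0 µg/mL) or 1% ethanol on both sides. GE (100 µg/mL) then added apical or basolateral for 2 h; ginsenosides in receiver by LC-MS. ER = Papp B→A / Papp A→B; verapamil 10 µM positive control.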

Q: For `CC(C)=CCC[C@](C)(O[C@@H]1O[C@H](CO[C@@H]2OC[C@H](O)[C@H](O)[C@H]2O)[C@@H](O)[C@H](O)[C@H]1O)[C@H]1CC[C@]2(C)[C@@H]1[C@H](O)C[C@@H]1[C@@]3(C)CC[C@H](O[C@@H]4O[C@H](CO)[C@@H](O)[C@H](O)[C@H]4O[C@@H]4O[C@H](CO)[C@@H](O)[C@H](O)[C@H]4O)C(C)(C)[C@@H]3CC[C@]12C` [Rb2, ginsenoside Rb2], which “Effect of SLE on transport (AP→BL, BL→AP)” value (“Effect of SLE on transport” for short) [1] is on record?
A: The value was “No transport difference”.

Q: What does the source list for `CC(C)=CCC[C@](C)(O[C@@H]1O[C@H](CO[C@@H]2O[C@H](CO)[C@@H](O)[C@H](O)[C@H]2O)[C@@H](O)[C@H](O)[C@H]1O)[C@H]1CC[C@]2(C)[C@@H]1[C@H](O)C[C@@H]1[C@@]3(C)CC[C@H](O[C@@H]4O[C@H](CO)[C@@H](O)[C@H](O)[C@H]4O[C@@H]4O[C@H](CO)[C@@H](O)[C@H](O)[C@H]4O)C(C)(C)[C@@H]3CC[C@]12C` [Rb1, ginsenoside Rb1]?
A: Effect of verapamil on transport (efflux ratio) [1]: No transport difference; Effect of SLE on transport (AP→BL, BL→AP) [1]: No transport difference; Transport by P-gp [2]: not be transported by P-gp; Effect of verapamil on efflux ratio [3]: decreased significantly; Effect of SLE on BL-AP transport / efflux ratio [3]: concentration dependently decrease

Q: Which results are given for `C[C@H]1O[C@@H](O[C@H]2[C@@H](O)C[C@H](O[C@H]3[C@@H](O)C[C@H](O[C@H]4CC[C@@]5(C)[C@H](CC[C@@H]6[C@@H]5C[C@@H](O)[C@]5(C)[C@@H](C7=CC(=O)OC7)CC[C@]65O)C4)O[C@@H]3C)O[C@@H]2C)C[C@H](O)[C@@H]1O` [Digoxin, digoxin, reference compound]?
A: Effect of verapamil on transport (efflux ratio) [1]: No transport difference; Effect of SLE on transport (AP→BL, BL→AP) [1]: No transport difference

Q: For `CC(C)=CCC[C@](C)(O[C@@H]1O[C@H](CO)[C@@H](O)[C@H](O)[C@H]1O)[C@H]1CC[C@]2(C)[C@@H]1[C@H](O)C[C@@H]1[C@@]3(C)CC[C@H](O[C@@H]4O[C@H](CO)[C@@H](O)[C@H](O)[C@H]4O[C@@H]4O[C@H](CO)[C@@H](O)[C@H](O)[C@H]4O)C(C)(C)[C@@H]3CC[C@]12C` [Rd, ginsenoside Rd], which “Effect of verapamil on transport (efflux ratio)” value [1] is on record?
A: Its value is “No transport difference”.

Q: What about the “Effect of SLE on transport” value [1] of the same compound?
A: Its value is “No transport difference”.

Q: What about the “Effect of verapamil on efflux ratio” value [3] of the same compound?
A: Its value is “decreased significantly”.

Q: What about the “Effect of SLE on BL-AP transport / efflux ratio” value [3] of the same compound?
A: Its value is “concentration dependently decrease”.

Q: With `CC(C)=CCC[C@](C)(O[C@@H]1O[C@H](CO[C@@H]2O[C@@H](CO)[C@H](O)[C@H]2O)[C@@H](O)[C@H](O)[C@H]1O)[C@H]1CC[C@]2(C)[C@@H]1[C@H](O)C[C@@H]1[C@@]3(C)CC[C@H](O[C@@H]4O[C@H](CO)[C@@H](O)[C@H](O)[C@H]4O[C@@H]4O[C@H](CO)[C@@H](O)[C@H](O)[C@H]4O)C(C)(C)[C@@H]3CC[C@]12C` [Rc, ginsenoside Rc] as the compound, how does the “Effect of verapamil on transport (efflux ratio)” value [1] read?
A: Its value is “No transport difference”.

Q: And the “Effect of SLE on transport” value [1]?
A: The value was “No transport difference”.
